Data as given in patent publication US8063191B2, “Polynucleotides encoding for fusion proteins with natriuresis activity” (Mayo Foundation for Medical Education and Research, priority 2005, dated 2011).

System: normal dogs that were anesthetized
Experiment: Hemodynamic and renal properties of intravenous LA-ANP versus ANP infusion in anesthetized normal dogs
Format: in vivo, dog
Settings: for urinary sodium excretion: baseline 47.0±18.9; for distal fractional sodium reabsorption: baseline 97.2±0.9
Protocol: Studies comparing LA-ANP to ANP were performed in normal dogs that were anesthetized. Equimolar concentrations of a low dose (2 pmol/kg/min) of LA-ANP and ANP were infused intravenously, where ANP was administered at a threshold concentration required to activate cyclic guanosine monophosphate. Equimolar concentrations of a high dose of LA-ANP and ANP (33 pmol/kg/min.) were also infused intravenously. Infusion of ANP or LA-ANP for 45 minutes was performed following a 30 minute baseline period, which was preceded by a 60 minute equilibrium period. Infusion was followed by a 30 minute wash-out period and three recovery (Rec) periods of 30 minutes each. Hemodynamic and renal parameters were measured at baseline (BL), during 45 minutes of infusion, and 120 minutes post-infusion.

[1] = low dose 2 pmol/kg/min i.v., at 120 minutes post-infusion
[2] = low dose 2 pmol/kg/min i.v., during infusion

Compound: CC[C@H](C)[C@@H]1NC(=O)[C@H](CCCNC(=N)N)NC(=O)[C@H](CC(=O)O)NC(=O)[C@H](CCSC)NC(=O)[C@H](CCCNC(=N)N)NC(=O)CNC(=O)CNC(=O)[C@H](Cc2ccccc2)NC(=O)[C@@H](NC(=O)[C@H](CO)NC(=O)[C@H](CO)NC(=O)[C@H](CCCNC(=N)N)NC(=O)[C@H](CCCNC(=N)N)NC(=O)[C@H](CC(C)C)NC(=O)[C@@H](N)CO)CSSC[C@@H](C(=O)N[C@@H](CC(N)=O)C(=O)N[C@@H](CO)C(=O)N[C@@H](Cc2ccccc2)C(=O)N[C@@H](CCCNC(=N)N)C(=O)N[C@@H](Cc2ccc(O)cc2)C(=O)O)NC(=O)CNC(=O)[C@H](CC(C)C)NC(=O)CNC(=O)[C@H](CO)NC(=O)[C@H](CCC(N)=O)NC(=O)[C@H](C)NC(=O)CNC1=O [ANP, reference compound]
- natriuresis (in words) [1]: not increased
- glomerular filtration rate (in words) [2]: No change
- mean arterial pressure (in words) [2]: No change
- natriuresis (in words) [2]: not increased
- diuresis (in words) (low dose 2 pmol/kg/min i.v., with infusion): no significant change

Compound: SLRRSSCFGGRMDRIGAQSGLGCNSFRYRITA-REDKQGWA (SLRRSSCFGGRMDRIGAQSGLGCNSFRYRITAREDKQGWA; listed as Homo sapiens) [LA-ANP]
- diuretic effect as compared to ANP (equimolar i.v. infusion): greater diuretic effect
- natriuretic effect as compared to ANP (equimolar i.v. infusion): greater natriuretic effect
- glomerular filtration rate, compared to high dose of ANP (high dose 33 pmol/kg/min i.v.): increased
- mean arterial pressure, compared to high dose of ANP (high dose 33 pmol/kg/min i.v.): decreased
- urinary sodium excretion (low dose 2 pmol/kg/min i.v., at 120 minutes post-infusion, p<0.01): 119.2±34.2 μEq/min.
- distal fractional sodium reabsorption [1]: 95.3±0.9%
- urinary sodium excretion (low dose 2 pmol/kg/min i.v., during 45 min infusion, p<0.01): 88.4±17.5 μEq/min.
- glomerular filtration rate (in words) [2]: No change
- mean arterial pressure (in words) [2]: No change
- renal blood flow, compared to low dose ANP [2]: increased
- diuresis (urine flow) (low dose 2 pmol/kg/min i.v., during infusion, baseline 0.34±0.08, p<0.01): 1.08 ± 0.23 mL/min
- distal fractional sodium reabsorption [2]: 96.0±0.6%
- distal fractional sodium reabsorption, overall, compared to low dose of ANP (low dose 2 pmol/kg/min i.v., p<0.01): significantly decreased
